Columns and labels:
[1] = tested on: human liver cancer cell line (Hep3B); assay: Colony-forming ability, anticancer drug in combination with calcium lactate (6-well plates); assay type: cell-based; conditions: 2.5 mM calcium lactate alone, vs control
Experimental: Human liver cancer cell line (Hep3B) with the cell number of 1×10^3 cells were seeded into an RPMI1640 medium in each of 6-well plates. After one day, the medium was replaced with fresh medium and the cells were treated with 2.5 mM calcium lactate or 1 μM, 2.5 μM, and 5 μM Sorafenib alone or treated with various concentrations (1 μM, 2.5 μM, and 5 μM) of Sorafenib in combination with 2.5 mM calcium lactate. Then, the colony-forming abilities of the cells were compared. In this case, a human liver cancer cell line (Hep3B) untreated with any drug was used as a control group (FIGS. 45a and 45b).

[2] = tested on: human colorectal cancer cell lines (HT-29 and HCT-116); assay: as above; assay type: cell-based; conditions: 2.5 mM calcium lactate alone, vs control
Experimental: Human colorectal cancer cell lines (HT-29 and HCT-116) with the cell number of 1×10^3 cells were seeded into an RPMI1640 medium in each of 6-well plates. After one day, the medium was replaced with fresh medium and the cells were treated with 2.5 mM calcium lactate or 1 μM, 2.5 μM, and 5 μM Imatinib alone or treated with various concentrations (1 μM, 2.5 μM, and 5 μM) of Imatinib in combination with 2.5 mM calcium lactate. Then, the colony-forming abilities of the cells were compared. In this case, human colorectal cancer cell lines (HT-29 and HCT-116) untreated with any drug were used as control groups (FIGS. 38a, 38b, 39a and 39b).
Human colorectal cancer cell lines (HT-29 and HCT-116) with the cell number of 1×10^3 cells were seeded into an RPMI1640 medium in each of 6-well plates. After one day, the medium was replaced with fresh medium and the cells were treated with 2.5 mM calcium lactate or 2.5 μM, 5 μM, and 10 μM 5-FU alone or treated with various concentrations (2.5 μM, 5 μM, and 10 μM) of 5-FU in combination with 2.5 mM calcium lactate. Then, the colony-forming abilities of the cells were compared. In this case, human colorectal cancer cell lines (HT-29 and HCT-116) untreated with any drug were used as control groups (FIGS. 40a, 40 b, 41a and 41b).

CC(O)C(=O)[O-].CC(O)C(=O)[O-].[Ca+2] (centres unmarked) [calcium lactate]
colony-forming ability [1]: suppressed | colony-forming ability [2]: suppressed

From patent US11413261B2, “Pharmaceutical composition for treating cancer comprising lactate metal salt” (METIMEDI PHARMACEUTICALS CO., LTD, priority 2014, dated 2022)
